In patent US7923204B2, “Forward mutation assay based on 5-fluorouracil resistance” (priority 2003, dated 2011):
Read-outs that look alike come from different tables or passages of the source. Marks after values point to notes of the source that are not given here.

What was measured:
[1] = tested on: FU100
Experimental: Briefly, in order to practice the disclosed mutation assay one-ml aliquots of exponentially growing bacteria are exposed to the test agent for two hours in the presence and absence of a metabolic activation system, such as a mammalian (i.e., rat, hamster or human) liver homogenate (S9-fraction or liver microsomal enzymes). The aliquots are then diluted, allowed to grow for 3 hours, and assessed for treatment-related toxicity/inhibition by optical density. The cultures are subsequently diluted a second time and grown overnight to permit full recovery from toxicity and to allow expression of the FU^R phenotype. Samples of the cultures are then plated in 384-well microtiter dishes in the presence of 2 μg/ml 5-FU and the pH-sensitive indicator bromcresol purple. Three days later positive wells containing FU^R colonies are detected by their yellow color and enumerated. Treated cultures are then compared to control plates to determine genotoxic activity.
For each mutation experiment, two frozen 1-ml aliquots of FU100 were quickly thawed in a 37° C. water bath, pelleted by centrifugation, washed to remove the DMSO, and suspended in 35 mL of MinE medium. The culture was shaken for approximately 1 hour at 37° C. until the optical density at 600 nm (OD600) reached the target density of 0.3. A 16-ml aliquot of culture was added to each of two 50-ml tubes containing 3.6 ml of a NADPH-generating system (5.6 mM glucose-6-phosphate, 4.5 mM NADP+, 5 mM sucrose, 110 mM Na2HPO4, 37 mM KCl, and 9 mM MgCl2) and either 0.4 ml rat liver S-9 or an equal volume of sodium phosphate buffer. Aliquots of these mixtures were distributed into three 12-well cluster dishes (one for exposure with S-9, one for exposure without S-9, one for controls with and without S-9), and exposed to test compounds as 1-ml aliquots for 2 hour as outlined in FIG. 1.
Following treatment, the 1-ml aliquots were transferred into 9 ml of warm MinE medium in a 50 ml tube and incubated at 37° C. on a rotary wheel for 3 hours. Next, 20 ml of medium was added to each culture tube and 0.25 ml aliquots were transferred to a 96-well plate for OD600 measurements to assess toxicity (OD Day 1). […] Bulk cultures were then incubated overnight in the dark at 30° C. to permit recovery from toxicity and to allow time for the test cells to express the FU^R phenotype.
The next day, OD600 was again assessed to adjust cell number plated on 5-FU plates (OD Day 2; 100 μl of the culture diluted with 150 μl MinE medium for OD600 measurements). For plating, a 35 μl aliquot of each culture was added to 31.4 mL of MinE medium with 2 μg/ml of 5-FU and 10 μg/ml of bromcresol purple. The mixture was then dispersed into a 384-well plate (75 μl/well) and placed at 37° C. for 3 days in a humidified incubator.
The data obtained for both survival (OD day 1), relative number of cells plated (OD day 2), and number of positive wells were imported into an Excel template.
Table 8 summarizes the criteria for positive result in 5-FU assay using the FU100 tester strain described and claimed herein. […] A positive compound was defined when two or more doses met the aforementioned criteria.

[2] = tested on: FU100; remark: listed apart in the source
[3] = tested on: Salmonella; conditions: cited from earlier work
[4] = tested on: sister chromatid exchange; conditions: cited from earlier work
[5] = tested on: TA100, TA1535
Source text: As stated above, the Ames Salmonella his+ plate incorporation assay evaluates genotoxic activity (mutagenicity) of chemical compounds on a set of genetically modified bacterial tester strains that are auxotrophic for the amino acid histidine. In practice, the Ames Assay simultaneously evaluates the genotoxic activity of a potential mutagen on several different target genes. The standard Ames Assay utilizes several different tester strains, each with a distinct mutation (e.g., transition, frameshift etc.) in one of the genes comprising the histidine (his) biosynthetic operon. The his operon encodes enzymes required for the biosynthesis of the amino acid histidine. For example, strain TA98 contains the hisD3052 allele which is reverted by a frameshift mutation, while strain TA1535 contains the hisG46 allele which is reverted by transition and transversion mutations. More specifically, the Ames Assay evaluates the ability of a chemical agent to increase the rate of reversion of auxotrophic strains of Salmonella to prototrophy.

[6] = tested on: micronucleus; conditions: cited from earlier work
[7] = tested on: chromosome aberrations; conditions: cited from earlier work
[8] = tested on: mouse lymphoma; conditions: cited from earlier work
[9] = tested on: TA100 his+
Experimental: A study was then conducted to determine the optimal concentration of the selective agent 5-FU. The growth rate was determined for cultures in MinE containing up to 8 μg/ml 5-FU.

[10] = in the presence of S9 activation (+), FU100, 2 h exposure
[11] = in the presence of S9 activation (+), lowest dose tested giving a positive response
[12] = text and figure legend (FIG. 6), with or without S9
[13] = without S9 activation (−), FU100, 2 h exposure
[14] = in the presence of S9 activation (+), approximate, first dose with greater than 50% survival by optical density on Day 1
[15] = without S9 activation (−), approximate, first dose with greater than 50% survival by optical density on Day 1
[16] = NTP Results Report 12 Aug. 2002 or cited reference (footnotes f, g, i, j)
[17] = NTP Results Report 12 Aug. 2002
[18] = TA100 or TA1535, plate incorporation or liquid suspension
[19] = without S9 activation (−), lowest dose tested giving a positive response

| SMILES | Results (5-FU assay) [1, 10] | Lowest Positive Dose [1, 11] [µg/mL] | response in the 5-FU Assay (in words) [1, 12] | Results (5-FU assay) [1, 13] | LD50 [2, 14] [µg/mL] | LD50 [2, 15] [µg/mL] | NTP Results: SA = Salmonella [3, 16] | NTP Results: SC = sister chromatid exchange [4, 17] | response in the standard Ames assay (in words) [5, 18] | NTP Results: MN = micronucleus [6, 17] | NTP Results: CA = chromosome aberrations [7, 17] | Results (5-FU assay) [1] | NTP Results: ML = mouse lymphoma [8] | NTP Results: SA = Salmonella [3] | NTP Results: SC = sister chromatid exchange [4] | NTP Results: MN = micronucleus [6] | NTP Results: CA = chromosome aberrations [7] | NTP Results: ML = mouse lymphoma [8, 17] | Lowest Positive Dose [1, 19] [µg/mL] | further results |
| --- | --- | --- | --- | --- | --- | --- | --- | --- | --- | --- | --- | --- | --- | --- | --- | --- | --- | --- | --- | --- |
| O=P1(N(CCCl)CCCl)NCCCO1 (stereo not shown) [Cyclophosphamide•H2O] | Pos^w | 1500 | weak positive | Neg | >300 | >1500 | (SA+, CA+, SC+, MN+) | (SA+, CA+, SC+, MN+) | positive | (SA+, CA+, SC+, MN+) | (SA+, CA+, SC+, MN+) |  |  |  |  |  |  |  |  |  |
| CCCCC(CC)COC(=O)c1ccccc1C(=O)OCC(CC)CCCC (stereo not shown) [Di (2-ethylhexyl) phthalate] |  |  |  |  | >5000 | >5000 |  |  |  |  |  | Neg | (SA−, CA−, SC+−?, ML−, MN?) | (SA−, CA−, SC+−?, ML−, MN?) | (SA−, CA−, SC+−?, ML−, MN?) | (SA−, CA−, SC+−?, ML−, MN?) | (SA−, CA−, SC+−?, ML−, MN?) |  |  | response in the 5-FU Assay (in words) [1]: negative/non-toxic |
| CC1CCC(C(C)C)C(O)C1 (stereo not shown) [Menthol] | Neg |  |  | Neg | >9 | >16 | (SA−, CA−, SC−, ML−, MN−) | (SA−, CA−, SC−, ML−, MN−) |  | (SA−, CA−, SC−, ML−, MN−) | (SA−, CA−, SC−, ML−, MN−) |  |  |  |  |  |  | (SA−, CA−, SC−, ML−, MN−) |  |  |
| OO [Hydrogen Peroxide] |  |  | easy to detect |  |  |  |  |  |  |  |  | Pos |  | (SA+^w) |  |  |  |  |  | response in the 5-FU Assay (in words) [1]: positive compounds in toxic concentrations; Lowest Positive Dose ([1]; Salmonella typhimurium): 3 µg/mL; Results (5-FU assay) ([1]; s9): Neg; response in the standard Ames assay (in words) [5]: weak or equivocal response |
| ClCc1ccccc1 [Benzyl Chloride] | Pos | 50 | easy to detect | Pos | >150 | >1500 | +^w | + | weak or equivocal response |  | + |  |  |  |  |  |  | + | 28 |  |
| O=C1CN(/N=C/c2ccc([N+](=O)[O-])o2)C(=O)N1 [Nitrofurantoin] |  |  |  |  |  |  |  |  |  |  |  | Pos | (SA+, CA+, SC+, ML+, MN−) | (SA+, CA+, SC+, ML+, MN−) | (SA+, CA+, SC+, ML+, MN−) | (SA+, CA+, SC+, ML+, MN−) | (SA+, CA+, SC+, ML+, MN−) |  |  | Lowest Positive Dose ([1]; Salmonella typhimurium): 0.1 µg/mL; LD50 ([2]; Salmonella typhimurium): >1 µg/mL |
| Nc1ncn([C@@H]2O[C@H](CO)[C@@H](O)[C@H]2O)c(=O)n1 [5-Azacytidine] |  |  |  |  | >5 | >3 |  |  |  |  |  | Pos | (SA+, CA+, SC+, ML+, MN+) | (SA+, CA+, SC+, ML+, MN+) | (SA+, CA+, SC+, ML+, MN+) | (SA+, CA+, SC+, ML+, MN+) | (SA+, CA+, SC+, ML+, MN+) |  |  |  |
| CCC1CO1 (stereo not shown) [1,2-Epoxybutane] | Pos | 500 | positive compounds in non-toxic concentrations | Pos | >5000 | >5000 | + | + | weak or equivocal response | − | + |  |  |  |  |  |  | + | 8.9 | response in the 5-FU Assay (in words) ([1]; text and figure legend (FIG. 6), with or without S9, listed as 1,2-epoxybutane): easy to detect |
| [N-]=[N+]=[N-] [Sodium Azide] | Pos^w | 90 |  | Pos^w | >30 | >50 | + | + | extremely sensitive |  | − |  |  |  |  |  |  |  | 160 | concentration producing a positive response in the 5-FU Assay ([1]; S9 condition not stated): greater than 90 μg/ml |
| O=c1[nH]cc(F)c(=O)[nH]1 [5-FU, 5-fluorouracil] |  |  |  |  |  |  |  |  |  |  |  |  |  |  |  |  |  |  |  | 5-FU concentration that significantly inhibited culture growth [9]: greater than or equal to 1 μg/ml; 5-FU concentration at which cultures continued to grow (longer doubling times) ([9]; cultures in MinE, up to 8 μg/ml 5-FU, data not shown): less than or equal to 0.5 μg/ml |
